Structures are written as SMILES.

Consider twelve compounds from US12617752B2, “Rapidly metabolized lipid compound” (Beijing Jitai Life Sciences Ltd, priority 2023, dated 2026).

Data set [1] is described as follows: Particle size and PDI of lipid nanoparticles by dynamic light scattering. In kind it is physicochemical. To be noted: lipid nanoparticles with luciferase mRNA; ionizable lipid/cholesterol/DSPC/DMG-PEG2000 50/38.5/10/1.5 mol%. Summed up: (§1)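 LNPs of ionizable lipid/cholesterol/phospholipid/PEG-lipid (50/38.5/10/1.5 mol%, N/P 6) were formed by microfluidic mixing with mRNA in pH 4.5 acetate, then buffer-exchanged by ultrafiltration. Size and PDI were measured by DLS. Encapsulation came from RiboGreen fluorescence (485/528 nm) in TE pH 7.5, with and without 0.5% Triton at 37 °C for 30 min.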

The nature of data set [2]: Encapsulation efficiency of lipid nanoparticles (Quant-it RiboGreen RNA Assay). It counts as physicochemical. As to conditions: lipid nanoparticles with luciferase mRNA. Summed up: as §1
In a further data set the test system is C57BL/6 mice. As to the kind of experiment: In vivo delivery of luciferase mRNA lipid nanoparticles in mice (bioluminescence imaging). As to conditions: intravenous, single dose 0.5 mg/kg luciferase mRNA. An outline of the steps: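 Female C57BL/6 mice, 6-8 weeks old, received luciferase mRNA lipid nanoparticles as a single intravenous dose of 0.5 mg/kg mRNA. At 6 h, D-luciferin given intraperitoneally; 10 min later, mice were imaged under isoflurane anaesthesia. Values are group mean fluorescence intensity and total photon count.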

In the case of `CCCCCCCCCCC(=O)OCC(C)(C)CCCCCN(CCCO)CCCCCCCCC(=O)OCC(CCCCCCC)CCCCCCC` [79b], in data set [1], the “Particle size (nm)” value came out at 99.27 nm and the “Particle-size distribution (PDI)” value is given as 0.15. The “Encapsulation efficiency (%)” value in data set [2] is reported as 92.85%. Besides, in the data set on C57BL/6 mice, the “Total photon count in vivo at 6 hours after administration (Total Flux)” value (“Total photon count in vivo at 6 hours” below) was determined as 1.62E+11.
The like results for `CCCCCCCCCCC(=O)OCCCC(C)(C)CCCN(CCO)CCCCCCCC(=O)OCCC(CCCCCCC)CCCCCCC` [80b] were, in that order, 93.39 nm, 0.18, 93.59% and 8.94E+10.
For `CCCCCCCCCCC(=O)OCCCC(C)(C)CCCN(CCCO)CCCCCCCC(=O)OCCC(CCCCCCC)CCCCCCC` [81b], in that order: 107.43 nm, 0.19, 92.87% and 5.20E+10.
The like results for `CCCCCCCCCC(=O)OCCCC(C)(C)CCCN(CCCO)CCCCCCC(=O)OCC(CCCCCCCC)CCCCCCCC` [82b] were, in that order, 99.57 nm, 0.16, 90.71% and 5.03E+10.
For the compound `CCCCCCCCCC(=O)OCCCC(C)(C)CCCN(CCCO)CCCCCCC(=O)OCCCC(CCCCCC)CCCCCC` [83b], in data set [1], the “Particle size (nm)” value stood at 100.67 nm and the “Particle-size distribution (PDI)” value was 0.10. In addition, in data set [2], the “Encapsulation efficiency (%)” value stood at 95.70%. Also, in the data set with C57BL/6 mice, the “Total photon count in vivo at 6 hours” value stood at 1.62E+10.
Take `CCCCCCCCCC(=O)OCCCC(C)(C)CCCN(CCCCO)CCCCCCC(=O)OCC(CCCCCCCC)CCCCCCCC` [84b]: in data set [1], the “Particle size (nm)” value worked out at 123.77 nm and the “Particle-size distribution (PDI)” value was determined as 0.11. In data set [2], the “Encapsulation efficiency (%)” value was determined as 89.17%. In addition, in the data set with C57BL/6 mice, the “Total photon count in vivo at 6 hours” value came to 6.68E+10.
For `CCCCCCCCCCC(=O)OCC(C)(C)CCCCCN(CCCO)CCCCCCC(=O)OCC(CCCCCCCCC)CCCCCCCCC` [85b], in that order: 92.14 nm, 0.17, 95.44% and 9.61E+10.
For `CCCCCCCCCCCC(=O)OCC(C)(C)CCCCCN(CCCO)CCCCCCC(=O)OCC(CCCCCCCCCC)CCCCCCCCCC` [86b], in that order: 92.26 nm, 0.13, 94.74% and 1.01E+11.
For `CCCCCCCCCCC(=O)OCC(C)(C)CCCCCN(CCO)CCCCCCCCC(=O)OCC(CCCCCCC)CCCCCCC` [87b], in that order: 92.25 nm, 0.22, 94.16% and 1.35E+11.
Regarding `CCCCCCCCCCCC(=O)OCC(C)(C)CCCCCN(CCCO)CCCCCCCCC(=O)OCC(CCCCCCCC)CCCCCCCC` [88b], in data set [1], the “Particle size (nm)” value is given as 98.16 nm and the “Particle-size distribution (PDI)” value worked out at 0.12. For the same compound, the “Encapsulation efficiency (%)” value in data set [2] was determined as 94.68%. For the same compound, the “Total photon count in vivo at 6 hours” value in the data set on C57BL/6 mice amounted to 4.51E+10.
The like results for `CCCCCCCCCCC(=O)OCC(C)(C)CCCCCN(CCCCO)CCCCCCCCC(=O)OCC(CCCCCCC)CCCCCCC` [89b] were, in that order, 122.20 nm, 0.08, 84.88% and 5.51E+10.
For `CCCCCCCCCCCC(=O)OCC(C)(C)CCCCCN(CCCCO)CCCCCCCCC(=O)OCC(CCCCCCCC)CCCCCCCC` [90b], in that order: 109.57 nm, 0.08, 91.21% and 4.72E+10.
